In publication PMC9837035 (Nature Communications, 2023):
“And” between values parts separate entries of the source, which are not always exact repeats. Equal values may be shown once.

Experiments:
[1] = test system: BGLT3 RNA in HUDEP-2 cells; test: RT-qPCR of BGLT3 in HUDEP-2 cells; type: cell-based, human
Method in brief: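 Total RNA reverse-transcribed to cDNA, then target transcripts quantified by SYBR Green real-time qPCR. Expression normalized to GAPDH as reference gene.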

[2] = test system: BGLT3-knockdown HUDEP-2 cells; test: RT-qPCR of BGLT3, β- and γ-globin in BGLT3-knockdown HUDEP-2 cells; type: cell-based, human; conditions: for induction of γ-globin in BGLT3-knockdown cell lines: HUDEP-2; for BGLT3 expression / β-globin expression / γ-globin expression: shctrl DMSO = 1, 3 replicates
Method: (§1) Total cellular RNA was prepared using the Tissue Total RNA Mini Kit (FAVORGEN), and cDNA was synthesized using ReverTra Ace Master Mix (TOYOBO). Expression of target genes was analyzed using THUNDERBIRD SYBR qPCR Mix (TOYOBO) on a CFX Connect Real Time System (Bio-Rad). The qPCR data were acquired on CFX Maestro (Bio-Rad). Primers are listed in Supplementary Table 10. GAPDH was used as a reference. Primers were purchased from INTEGRATED DNA TECHNOLOGIES or FASMAC.
Retroviral infection was used as previously described to establish cell lines stably expressing BGLT3 and transfected with the pCX4-pur vector, as well as knockdown cell lines transfected with the pSUPER vector[58]. Briefly, retroviruses were produced by transfecting PLAT-E cells with pCX4-pur-BGLT3 or pSUPER-ctrl, pSUPER-BGLT3, or pSUPER-G9a using 5 μg/mL polyethylenimine MAX (PEI MAX, Polysciences). Two days after transfection, the culture supernatant was collected and filtered through a 0.45-μm filter (Millipore) and used for infection with 8 μg/mL polybrene (Sigma). Forty-eight hours after infection, the infected cells were selected with 0.2 μg/mL puromycin (InvivoGen). The clonal puromycin-resistant cells were established via limiting dilution. The desired clones were confirmed by western blotting or qPCR.

[3] = test system: BCL11A and ZBTB7A in HUDEP-2 cells; test: RT-qPCR of BCL11A and ZBTB7A in HUDEP-2 cells; type: cell-based, human; conditions: for expression of BCL11A and ZBTB7A: HUDEP-2
Method: as §1

[4] = molecular target: T1, DNMT3b/3L (Homo sapiens, UniProt Q9UBC3); test: Radioisotope-based methyltransferase assay (selectivity); type: biochemical
T1 construct: purchased Reaction Biology

[5] = molecular target: T2, G9a (Homo sapiens, UniProt Q96KQ7); test: In vitro G9a methyltransferase assay (AlphaLISA-based); type: biochemical; set-up: purchased BPS Bioscience
T2 sequence (Q96KQ7 1-1210): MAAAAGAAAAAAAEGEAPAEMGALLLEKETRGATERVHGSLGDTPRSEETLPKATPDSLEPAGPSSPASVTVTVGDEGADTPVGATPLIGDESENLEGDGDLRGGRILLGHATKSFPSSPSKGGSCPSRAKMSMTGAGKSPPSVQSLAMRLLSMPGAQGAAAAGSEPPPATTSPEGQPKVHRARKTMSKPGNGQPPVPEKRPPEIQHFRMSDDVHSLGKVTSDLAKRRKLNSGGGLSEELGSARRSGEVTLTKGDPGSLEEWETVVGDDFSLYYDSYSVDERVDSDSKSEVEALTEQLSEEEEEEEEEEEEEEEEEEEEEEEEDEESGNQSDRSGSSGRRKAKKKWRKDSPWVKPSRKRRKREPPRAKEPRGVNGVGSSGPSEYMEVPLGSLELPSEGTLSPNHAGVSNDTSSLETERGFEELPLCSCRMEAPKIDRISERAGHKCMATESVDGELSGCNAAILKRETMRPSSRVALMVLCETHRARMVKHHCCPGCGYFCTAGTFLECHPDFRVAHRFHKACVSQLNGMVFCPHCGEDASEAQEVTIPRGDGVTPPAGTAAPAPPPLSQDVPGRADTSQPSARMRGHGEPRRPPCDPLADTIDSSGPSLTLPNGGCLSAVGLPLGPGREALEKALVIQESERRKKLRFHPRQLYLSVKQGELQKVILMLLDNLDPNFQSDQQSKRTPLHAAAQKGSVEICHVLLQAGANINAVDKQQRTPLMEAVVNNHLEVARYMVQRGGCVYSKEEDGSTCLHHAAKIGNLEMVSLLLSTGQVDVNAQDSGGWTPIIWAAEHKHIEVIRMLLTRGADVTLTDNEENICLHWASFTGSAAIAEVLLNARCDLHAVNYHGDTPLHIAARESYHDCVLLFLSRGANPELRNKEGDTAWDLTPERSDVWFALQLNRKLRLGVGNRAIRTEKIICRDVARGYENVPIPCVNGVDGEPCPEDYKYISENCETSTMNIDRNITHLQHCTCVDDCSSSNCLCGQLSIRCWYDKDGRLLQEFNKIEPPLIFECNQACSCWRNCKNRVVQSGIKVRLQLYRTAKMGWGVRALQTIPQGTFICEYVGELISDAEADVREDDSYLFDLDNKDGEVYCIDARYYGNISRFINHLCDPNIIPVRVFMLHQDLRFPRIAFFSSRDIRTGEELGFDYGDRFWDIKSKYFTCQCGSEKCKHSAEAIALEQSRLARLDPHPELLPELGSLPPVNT
Method: An amplified luminescence proximity homogeneous assay (ALPHA) was performed with a modified version of a previously described method. Recombinant G9a proteins (BPS Bioscience) were incubated with 15 μM S-adenosyl-methionine (Sigma) and 50 nM biotinylated histone H3 (1-21; AnaSpec) in the assay buffer (50 mM Tris-HCl (pH 9.0), 50 mM NaCl, 0.01% Tween-20, and 1 mM DTT). After incubation at room temperature for 1 h, AlphaLISA anti-H3K9me2 acceptor beads (final concentration 10 μg/mL, PerkinElmer, AL117C) and AlphaScreen streptavidin donor beads (final concentration 10 μg/mL, PerkinElmer, 6760002B) were added and incubated for an additional 1 h prior to detection of the alpha signal with an EnSpire Alpha plate reader (PerkinElmer). ALPHA profile was analyzed using Origin (OriginLab).

[6] = molecular target: DNMT3b (Homo sapiens, UniProt Q9UBC3); test: Radioisotope-based methyltransferase assay (selectivity); conditions: 1 μM SAM
[7] = 50 μM, relative to DMSO = 1, replicate values
[8] = 100 μM, relative to DMSO = 1, replicate values
[9] = 200 μM, relative to DMSO = 1, replicate values
[10] = shBGLT3#1 HUDEP-2 cells treated with hydroxyurea
[11] = shBGLT3#2 HUDEP-2 cells treated with hydroxyurea
[12] = shBGLT3#3 HUDEP-2 cells treated with hydroxyurea
[13] = shctrl HUDEP-2 cells treated with hydroxyurea
[14] = 0.01 μM, relative to DMSO = 1, replicate values
[15] = G9a activity, 0.016 μM, single experiment
[16] = G9a activity, 0.08 μM, single experiment
[17] = G9a activity, 0.4 μM, single experiment
[18] = G9a activity, 2 μM, single experiment
[19] = G9a activity, single experiment
[20] = G9a activity, 10 μM, single experiment
[21] = G9a activity, 50 μM, single experiment

SMILES: NC(=O)NO [Hydroxyurea, hydroxyurea]
- BGLT3 expression in HUDEP-2 cells treated with hydroxyurea [1, 7]: 1.625 and 1.206 and 1.616
- BGLT3 expression in HUDEP-2 cells treated with hydroxyurea [1, 8]: 1.87 and 1.919 and 2.091
- BGLT3 expression in HUDEP-2 cells treated with hydroxyurea [1, 9]: 2.757 and 2.815 and 4.093
- BGLT3 expression ([1]; HUDEP-2): promoted BGLT3 expression
- BGLT3 expression ([1]; Left panel, Parental HUDEP-2 cells treated with hydroxyurea, Parental DMSO = 1, 3 replicates): 2.685 and 2.462 and 3.265
- BGLT3 expression ([1]; Right panel, Parental HUDEP-2 cells treated with hydroxyurea, DMSO of the same cells = 1, 3 replicates): 2.685 and 2.462 and 3.265
- induction of γ-globin in BGLT3-knockdown cell lines [2]: significantly suppressed by BGLT3 knockdown
- BGLT3 expression [2, 10]: 0.1509 and 0.1371 and 0.1512
- β-globin expression [2, 10]: 1.466 and 1.446 and 1.721
- γ-globin expression [2, 10]: 0.1913 and 0.1897 and 0.2071
- BGLT3 expression [2, 11]: 0.4826 and 0.5314 and 0.5646
- β-globin expression [2, 11]: 1.233 and 1.155 and 1.519
- γ-globin expression [2, 11]: 0.3698 and 0.274 and 0.2235
- BGLT3 expression [2, 12]: 0.2947 and 0.3306 and 0.3028
- β-globin expression [2, 12]: 1.946 and 1.495 and 2.515
- γ-globin expression [2, 12]: 0.4324 and 0.5055 and 0.5513
- BGLT3 expression [2, 13]: 2.21 and 1.619 and 1.809
- β-globin expression [2, 13]: 1.158 and 0.7746 and 0.9701
- γ-globin expression [2, 13]: 2.343 and 1.97 and 1.753
- BCL11A expression in HUDEP-2 cells treated with hydroxyurea [3, 7]: 1.149 and 0.8339 and 1.127
- ZBTB7A expression in HUDEP-2 cells treated with hydroxyurea [3, 7]: 1.5773 and 1.182 and 1.627
- BCL11A expression in HUDEP-2 cells treated with hydroxyurea [3, 8]: 1.406 and 0.8316 and 1.105
- ZBTB7A expression in HUDEP-2 cells treated with hydroxyurea [3, 8]: 3.378 and 1.925 and 2.126
- BCL11A expression in HUDEP-2 cells treated with hydroxyurea [3, 9]: 0.9537 and 0.8461 and 1.024
- ZBTB7A expression in HUDEP-2 cells treated with hydroxyurea [3, 9]: 5.802 and 2.404 and 2.049
- expression of BCL11A and ZBTB7A [3]: did not significantly affect

SMILES: Cc1c(C(=O)NC(CCC2CC2)C(=O)Nc2ccc(C#N)cc2)[nH]c2c1C(=O)CC(C)(C)C2 (stereo not shown) [RK-701]
- IC50 ([4]; 1 μM SAM): > 100 µM
- IC50 ([4]; RK-701 in duplicate): > 100 µM
- BGLT3 expression ([1]; HUDEP-2): induced BGLT3 expression
- BGLT3 expression ([1]; parental HUDEP-2 cells treated with RK-701, parental DMSO = 1, replicates 1a-3b): 3.454 and 1.802 and 1.321 and 3.995 and 3.605 and 4.281
- BGLT3 expression in HUDEP-2 cells treated with RK-701 and decitabine ([1]; single agents or combination, relative to DMSO = 1, replicate values): 2.098 and 1.983 and 1.578
- induction of γ-globin in BGLT3-knockdown cell lines [2]: almost completely abolished
- BCL11A expression in HUDEP-2 cells [3, 14]: 0.7709 and 1.287 and 1.333
- ZBTB7A expression in HUDEP-2 cells [3, 14]: 0.7642 and 1.54 and 1.588
- expression of BCL11A and ZBTB7A [3]: did not significantly affect
- IC50 ([5]; G9a): 0.023 to 0.027 µM and 0.027 µM
- Inhibition % ([5]; G9a activity, 0.00064 μM, single experiment): 6.475% and 0%
- Inhibition % [5, 15]: 30.3347% and 30.0776%
- inhibition at 0.016 µM [5, 15]: 35.6%
- Inhibition % [5, 16]: 81.1273% and 81.8822%
- inhibition at 0.08 µM [5, 16]: 82.3%
- Inhibition % [5, 17]: 98.9416% and 99.213%
- inhibition at 0.4 µM [5, 17]: 99.3%
- Inhibition % [5, 18]: 99.979% and 99.9697%
- inhibition at 2 µM [5, 18]: 100%
- IC50 [5, 19]: 0.0248 µM and 0.029 µM and 0.0285 µM
- IC50 [6]: > 100 µM

SMILES: Cc1c(C(=O)N[C@H](CCC2CC2)C(=O)Nc2ccc(C#N)cc2)[nH]c2c1C(=O)CC(C)(C)C2 [RK-0133114]
- IC50 ([5]; G9a): 3.7 µM
- Inhibition % ([5]; G9a activity, 0.0032 μM, single experiment): 9.4545% and 6.383% and 0%
- Inhibition % [5, 15]: 4.31% and 2.981% and 0%
- Inhibition % [5, 16]: 0% and 8.43%
- Inhibition % [5, 18]: 32.9012% and 25.4405%
- inhibition at 2 µM [5, 18]: 42.7%
- Inhibition % [5, 20]: 77.5611% and 74.8715%
- inhibition at 10 µM [5, 20]: 74.3%
- Inhibition % [5, 21]: 96.0953% and 94.6907%
- inhibition at 50 µM [5, 21]: 97.9%
- IC50 [5, 19]: 3.01 µM and 3.62 µM and 4.44 µM

SMILES: Nc1ncnc2c1ncn2[C@@H]1O[C@H](CSCC[C@H](N)C(=O)O)[C@@H](O)[C@H]1O [SAH, S-(5'-Adenosyl)-L-homocysteine, reference compound]
- IC50 ([4]; 1 μM SAM): 0.05 µM
- IC50 ([4]; RK-701 in duplicate): 0.0542 µM
- IC50 [6]: 0.11 µM
